Here are results for five substances from patent US10632172B2, “Injectable self-assembling antibacterial peptide hydrogels” (New Jersey Institute of Technology, priority 2018, dated 2020).

“And” between values parts separate entries of the source, which are not always exact repeats. Equal values may be shown once. “Also recorded” adds a separate entry of the source.

Data set [1] deals with Pseudomonas aeruginosa PAO1. Nature of the data set: Colony disruption on agar plates (inhibition zones, SEM). It is filed as cell-based. The following applies: P. aeruginosa PAO1 on agar, peptide hydrogels/solutions applied, overnight. Here is the method:
Colonies of the gram-negative bacteria Pseudomonas aeruginosa PAO1 were grown on agar and CASP solutions were applied to assess their colony-disruption ability (FIGS. 9A-9E). Cationic amphiphilic peptide nanofibers show noticeable bactericidal effect. This effect was correlated with the terminal charge on the cationic nanofibers (FIGS. 9C-9D), consistent with the hypothesis that a greater terminal charge facilitates the association of the peptide nanofibrils with the bacterial cell membrane.
To test the efficacy of CASPs against bacterial colonies, Pseudomonas aeruginosa (PAO1) were cultured on agar plates and peptide hydrogels/solutions were placed on these bacteria cultures during the exponential growth phase to evaluate the antibacterial properties. The experiment to test antibacterial activity of the peptides was carried out over 4 days. On day 1, an agar plate was streaked with the bacteria using an inoculating loop. The streaked plate was then kept in an incubator to allow for bacterial growth overnight. Day 2 consisted of inoculating one colony of bacteria from the streaked plate into a glass tube filled with 5 mL of the Luria-Bertani (LB) broth. The tube is then set aside to allow for the colony to grow overnight in the LB broth. The following day the agar plates were labeled with the type of bacteria, concentration used, treatment being tested, and the date. […]

A short description of data set [2]: Rheology of CASP hydrogels/solutions (strain sweep, shear recovery). It is filed as physicochemical. The following applies: for storage modulus (G') at 1% strain: 2% w/v hydrogels/solutions. Here is the method: For rheology, 2% peptide hydrogel was transferred between a plate and a 4 mm parallel plate geometry with a gap of 350 μm, on a Malvern Kinexus Ultra+rheometer. Strain sweep (0.1-100% strain at 1 Hz) and shear recovery (1% strain at 1 Hz for 5 min, 100% strain at 1 Hz for 1 min, and 1% strain at 1 Hz for 5 min) were carried out.

A short description of data set [3]: In vivo subcutaneous implantation of hydrogel, histology. More on the design: species or system Wistar rats. Here is the method: To test the in vivo persistence of the peptide, Wistar rats were subcutaneously injected with 200 μL CASP-K6 hydrogel (2% w/v). Because of the thixotropic nature of the hydrogel, it reconstituted post-injection in the subcutaneous pocket. At prescribed time intervals (1, 3, and 7 days), the rats were sacrificed and the dorsal skin covering the implant was removed for histological examination. Used was hematoxylin and eosin (H&E) FIGS. 15A-15B, and Masson's trichrome staining FIGS. 15C-15D) to analyze the tissue sections.
For in vivo subcutaneous implantations, NJIT-Rutgers animal care facility was used. Injected was ˜200 μL CASP-K6 hydrogels in the subcutaneous pocket (dorsal aspect) of female Wistar rats (˜250 g, Charles River) (four implants (n=4) per rat). At the specified time points (1 day, 3 day, and 7 day), the animals were sacrificed and regions around the implant were excised, fixed, and processed. Hematoxylin and eosin (H&E) and Masson's trichrome staining was used for histologic analysis.

Data set [4] deals with NIH 3T3 fibroblasts. Nature of the data set: In vitro cytocompatibility (LIVE/DEAD viability/cytotoxicity kit). It counts as cell-based. The settings on record: 0.002% peptide in media, day 3. Here is the method: For in vitro cytocompatibility tests, cultured were NIH 3T3 fibroblasts in DMEM supplemented with 10% FBS and 1× penicillin-streptomycin in T75 flasks. After the fibroblasts reached confluency, they were seeded in a 96-well plate at 2,500 cells/well. 0.002% CASP-K6 (n=6) and a control (media with sucrose and phosphate-buffered saline (PBS), n=6) were tested. For the former, the peptide was supplemented in the media, and for the control, 298 mM sucrose and PBS was supplemented to the media. The sucrose and PBS supplemented in the media control corresponded to the quantities required to formulate CASP-K6. Media was changed daily for 3 days and cytocompatibility was assessed on day 3 using a LIVE/DEAD viability/cytotoxicity kit (images were taken on a Nikon Eclipse Ti—S inverted fluorescent microscope). A NIH ImageJ was used to quantify cell viability.

The nature of data set [5]: Hydrogel formation after addition of 10xPBS to 2% (w/v) peptide solution in 298 mM sucrose. It is filed as physicochemical. The following applies: 2% (w/v) in 298 mM sucrose, 10xPBS pH 7 added 1:9. Here is the method: In one example, after purification and lyophilization, the peptides are dissolved in 298 mM sucrose solution to prepare 2% (w/v) solutions. After the addition of 10×PBS (pH 7) to the peptide solution (in a 1:9 volumetric ratio), hydrogels form within seconds. Biofilms of the gram-negative bacteria Pseudomonas putida are grown on agar plates and CASP solutions are applied on top of established biofilms to test their ability to disrupt the bacterial colony. Cationic amphiphilic peptide nanofibers show noticeable bactericidal effect on biofilms. This effect is correlated with the terminal charge on the cationic nanofibers, consistent with initial hypothesis contained herein that higher terminal charge facilitates the association of the peptide nanofibrils with the bacterial cell membrane. The effect of the antibacterial hydrogel is localized on the biofilm.
In this example, a series of CASPs was explored. The series of CASPs were synthesized through solid-phase peptide synthesis and verified by mass spectrometry as shown in FIGS. 3A-3D. After purification and lyophilisation, the peptides were dissolved in 298 mM sucrose solution to prepare 2% (w/v) solutions. After the addition of 10×PBS (pH 7) to the peptide solution (in a 1:9 volumetric ratio), CASP-K2 through CASP-K6 formed hydrogels within seconds.

The conditions of data set [6]: cited from earlier work.

In the case of “Ac-KKKKKKSLSLSLSLSLSLKKKKKK-NH2 [CASP-K6]”, the “disruption of bacterial colonies / antibacterial activity” value in data set [1] is reported as “very effective in disrupting the bacterial layer; also recorded: comparable antibacterial activity”. Also, the “storage modulus (G') at 1% strain” value in data set [2] is around 210 Pa. Moreover, in data set [2] (strain not stated), the “storage modulus of hydrogel (rheometry)” value is > 100 Pa and > 200 Pa. For the same substance, the “shear strain at which the gel liquefied (G'<G'')” value in data set [2] (strain sweep) was above 30 % strain. For the same substance, in data set [3] (rat, in vivo, sc), the “in vivo persistence” value was “persists in vivo” and the “in vivo persistence of subcutaneous implant (remained observable)” value is recorded as “at least 7 days”. For the same substance, the “local/systemic toxicity or mortality” value in data set [3] (subcutaneous implants in rats, up to 7 days) was “did not induce any local/systemic toxicity or mortality”. Besides, the “toxicity with respect to mammalian cells (cytocompatibility)” value in data set [4] is reported as “low toxicity”.

“KKKKKKKKSLSLSLSLSLSLKKKKKKKK (CASP-K8) [cationic amphiphilic self-assembling peptide]”: in data set [1], the “disruption of bacterial colonies / antibacterial activity” value is listed as “very effective in disrupting the bacterial layer”. In addition, the hydrogel formation result in data set [5] is “failed to form a gel; also recorded: remained in solution”. Further, the “storage modulus (G') at 1% strain” value in data set [2] is reported as around 30 Pa.

For “KKKKSLSLSLSLSLSLKKKK (CASP-K4) [cationic amphiphilic self-assembling peptide]”, the “storage modulus (G') at 1% strain” value in data set [2] is listed as around 430 Pa.

Take LL-37: natural antimicrobial peptide: the “enzymatic degradation in vivo” value in data set [6] is reported as “susceptible to enzymatic degradation in vivo within a time period of hours”.

In the case of “KKSLSLSLSLSLSLKK (CASP-K2) [cationic amphiphilic self-assembling peptide, previously reported as a multifunctional scaffold]”, the “storage modulus (G') at 1% strain” value in data set [2] is around 620 Pa.
